Experimental data reported in US20080031982A1 (Metaproteomics, LLC, priority 2006, published 2008).

How the values were obtained:
[1] = molecular target: CDK6/cyclinD3 (Homo sapiens, UniProt Q00534); test: KinaseProfiler Assay
[2] = molecular target: CK1γ1 (Homo sapiens, UniProt Q9HCP0); test: KinaseProfiler Assay
Chain of CK1γ1 (Q9HCP0 whole entry): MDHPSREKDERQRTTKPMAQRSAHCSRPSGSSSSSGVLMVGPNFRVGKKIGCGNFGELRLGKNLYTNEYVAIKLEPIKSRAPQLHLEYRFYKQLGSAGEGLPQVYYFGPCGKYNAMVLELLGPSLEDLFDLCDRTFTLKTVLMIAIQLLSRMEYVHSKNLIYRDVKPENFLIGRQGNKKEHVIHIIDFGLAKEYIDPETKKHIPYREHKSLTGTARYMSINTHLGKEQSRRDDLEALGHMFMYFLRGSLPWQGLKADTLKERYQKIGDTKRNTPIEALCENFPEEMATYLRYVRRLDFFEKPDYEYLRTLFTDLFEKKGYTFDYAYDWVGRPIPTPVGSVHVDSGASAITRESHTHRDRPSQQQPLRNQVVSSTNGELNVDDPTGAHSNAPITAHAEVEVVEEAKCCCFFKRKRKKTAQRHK

Chain of CDK6/cyclinD3 (Q00534 whole entry): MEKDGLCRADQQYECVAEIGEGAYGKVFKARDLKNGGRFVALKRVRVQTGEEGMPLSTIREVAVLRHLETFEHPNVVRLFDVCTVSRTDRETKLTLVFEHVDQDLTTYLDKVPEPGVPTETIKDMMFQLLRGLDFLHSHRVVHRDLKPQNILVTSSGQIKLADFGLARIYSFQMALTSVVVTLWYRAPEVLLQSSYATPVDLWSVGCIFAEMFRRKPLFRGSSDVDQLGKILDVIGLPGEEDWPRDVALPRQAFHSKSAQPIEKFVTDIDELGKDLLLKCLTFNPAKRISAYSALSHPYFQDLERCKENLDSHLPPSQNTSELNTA
Chain of CDK6/cyclinD3 (P30281 whole entry partner): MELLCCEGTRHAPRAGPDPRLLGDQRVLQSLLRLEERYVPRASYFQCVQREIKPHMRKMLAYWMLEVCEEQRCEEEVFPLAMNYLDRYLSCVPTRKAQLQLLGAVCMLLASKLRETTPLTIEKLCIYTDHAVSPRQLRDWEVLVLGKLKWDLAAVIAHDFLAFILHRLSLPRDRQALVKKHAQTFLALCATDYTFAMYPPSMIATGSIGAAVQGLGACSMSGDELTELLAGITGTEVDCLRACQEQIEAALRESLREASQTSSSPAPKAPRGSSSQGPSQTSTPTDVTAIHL

Structure (SMILES): COc1cc(O)c(CC=C(C)C)c(O)c1C(=O)/C=C/c1ccc(O)cc1 [Xanthohumol, xanthohumol]
- Kinase activity, % of Control ([1]; 1 ug/ml): 110 % of Control
- Kinase activity, % of Control ([1]; 5 ug/ml): 79 % of Control
- Kinase activity, % of Control ([1]; 25 ug/ml): 23 % of Control
- Kinase activity, % of Control ([1]; 50 ug/ml): 7 % of Control
- Kinase activity, % of Control ([2]; 1 ug/ml): 101 % of Control
- Kinase activity, % of Control ([2]; 5 ug/ml): 79 % of Control
- Kinase activity, % of Control ([2]; 25 ug/ml): 50 % of Control
- Kinase activity, % of Control ([2]; 50 ug/ml): 26 % of Control
